The term Ki denotes the equilibrium dissociation constant of an inhibitor or competing ligand from its target.

The values below come from publication PMC3873466 (PLoS ONE, 2013).

For experiment [1], the target named is F. tularensis ParE (full length) (Francisella tularensis, UniProt A0A0J9WZF0). The experiment can be described thus: biochemical.
In experiment [2] the target is E. coli GyrB (full length) (Escherichia coli, UniProt P0AES6). Nature of the experiment: biochemical.

F. tularensis ParE (full length), sequence (A0A0J9WZF0 whole entry, looked up): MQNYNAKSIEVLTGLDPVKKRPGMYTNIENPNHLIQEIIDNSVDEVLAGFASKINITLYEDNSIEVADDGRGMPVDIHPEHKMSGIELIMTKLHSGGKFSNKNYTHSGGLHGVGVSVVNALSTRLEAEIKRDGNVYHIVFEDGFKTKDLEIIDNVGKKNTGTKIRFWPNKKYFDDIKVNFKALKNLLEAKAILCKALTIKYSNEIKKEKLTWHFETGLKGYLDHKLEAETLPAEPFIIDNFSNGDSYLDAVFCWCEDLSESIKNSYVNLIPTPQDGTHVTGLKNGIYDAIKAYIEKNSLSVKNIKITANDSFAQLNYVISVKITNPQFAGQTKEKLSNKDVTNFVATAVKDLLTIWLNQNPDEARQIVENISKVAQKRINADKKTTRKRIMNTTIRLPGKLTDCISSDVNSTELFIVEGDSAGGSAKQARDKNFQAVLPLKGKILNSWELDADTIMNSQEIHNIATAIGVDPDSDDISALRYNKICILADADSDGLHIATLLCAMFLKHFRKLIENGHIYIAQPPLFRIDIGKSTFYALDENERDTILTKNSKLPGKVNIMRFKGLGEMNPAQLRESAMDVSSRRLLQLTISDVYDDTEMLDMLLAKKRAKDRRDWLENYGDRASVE

Regarding `CNc1cc(F)cc2c1[nH]c1nc(Oc3cnc(C)nc3)nc(N3C[C@H]4CCN[C@H]4C3)c12` [C3, 6-fluoro-4-((3aR,6aR)-hexahydropyrrolo[3,4-b]pyrrol-5(1H)-yl)-N-methyl-2-((2-methylpyrimidin-5-yl)oxy)-9H-pyrimido[4,5-b]indol-8-amine], the inhibition constant (Ki) in experiment [1] was under 0.4 nM. On to `CNc1cc(F)cc2c1[nH]c1nc(Oc3cnc(C)nc3)nc(N3C[C@@H]4[C@H](N)C[C@]4(C)C3)c12` [C4, 4-((1S,5R,6R)-6-amino-1-methyl-3-azabicyclo[3.2.0]heptan-3-yl)-6-fluoro-N-methyl-2-((2-methylpyrimidin-5-yl)oxy)-9H-pyrimido[4,5-b]indol-8-amine], for which the inhibition constant Ki in experiment [1] was 0.8 nM; in experiment [2], 0.3 nM.
